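GI50 marks 50% less growth. TGI is the concentration that stops growth completely.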
Key:
Assay in all cases: NCI anticancer screen, dose series, 384-well format
A498 renal = test system: A498 renal
A549 NSCLC = test system: A549 NSCLC
ACHN renal = test system: ACHN renal
BT-549 breast = test system: BT-549 breast
CCRF-CEM leukemia = test system: CCRF-CEM leukemia
COLO 205 colon = test system: COLO 205 colon
DU-145 prostate = test system: DU-145 prostate
HCC-2998 colon = test system: HCC-2998 colon
HCT-116 colon = test system: HCT-116 colon
HCT-15 colon = test system: HCT-15 colon
HL-60(TB) leukemia = test system: HL-60(TB) leukemia
HOP-62 NSCLC = test system: HOP-62 NSCLC
HOP-92 NSCLC = test system: HOP-92 NSCLC
HS 578T breast = test system: HS 578T breast
HT29 colon = test system: HT29 colon
K-562 leukemia = test system: K-562 leukemia
KM12 colon = test system: KM12 colon
LOX IMVI melanoma = test system: LOX IMVI melanoma
M14 melanoma = test system: M14 melanoma
MALME-3M melanoma = test system: MALME-3M melanoma
MDA-MB-231 breast = test system: MDA-MB-231 breast
MDA-MB-468 breast = test system: MDA-MB-468 breast
NCI-H226 lung = test system: NCI-H226 lung
NCI-H23 lung = test system: NCI-H23 lung
NCI-H322M lung = test system: NCI-H322M lung
NCI-H460 NSCLC = test system: NCI-H460 NSCLC
OVCAR-4 ovarian = test system: OVCAR-4 ovarian
OVCAR-5 ovarian = test system: OVCAR-5 ovarian
OVCAR-8 ovarian = test system: OVCAR-8 ovarian
PC-3 prostate = test system: PC-3 prostate
RPMI-8226 leukemia = test system: RPMI-8226 leukemia
RXF 393 renal = test system: RXF 393 renal
SF-268 CNS = test system: SF-268 CNS
SK-MEL-2 melanoma = test system: SK-MEL-2 melanoma
SK-MEL-28 melanoma = test system: SK-MEL-28 melanoma
SK-MEL-5 melanoma = test system: SK-MEL-5 melanoma
SK-OV-3 ovarian = test system: SK-OV-3 ovarian
SN12C renal = test system: SN12C renal
SNB-19 CNS = test system: SNB-19 CNS
SNB-75 CNS = test system: SNB-75 CNS
SR leukemia = test system: SR leukemia
SW-620 colon = test system: SW-620 colon
T-47D breast = test system: T-47D breast
TK-10 renal = test system: TK-10 renal
U251 glioblastoma = test system: U251 glioblastoma
UACC-257 melanoma = test system: UACC-257 melanoma
UACC-62 melanoma = test system: UACC-62 melanoma

Question: With `COC1(C(=O)N2Cc3nc(Cl)nc(N[C@H](C)c4cc(N)cc(C(F)(F)F)c4)c3C2)CCOCC1` as the compound, how does the GI50 (A498 renal) read?
Answer: The GI50 was 14.1 µM.

Question: And the TGI (A498 renal)?
Answer: The TGI was 35.3 µM.

Question: And the GI50 (A549 NSCLC)?
Answer: The GI50 was 24.5 µM.

Question: And the TGI (A549 NSCLC)?
Answer: The TGI was greater than 100 µM.

Question: What about the GI50 (ACHN renal) of the same compound?
Answer: The GI50 was 20.4 µM.

Question: And the TGI (ACHN renal)?
Answer: The TGI was 67 µM.

Question: What about the GI50 (BT-549 breast) of the same compound?
Answer: Its GI50 is 14.5 µM.

Question: And the TGI (BT-549 breast)?
Answer: The TGI was 28 µM.

Question: And the GI50 (CCRF-CEM leukemia)?
Answer: The GI50 was 15.5 µM.

Question: What about the TGI (CCRF-CEM leukemia) of the same compound?
Answer: The TGI was 29.1 µM.

Question: And the GI50 (COLO 205 colon)?
Answer: The GI50 was 24 µM.

Question: What about the TGI (COLO 205 colon) of the same compound?
Answer: The TGI was 56.9 µM.

Question: And the GI50 (DU-145 prostate)?
Answer: The GI50 was 19.9 µM.

Question: What about the TGI (DU-145 prostate) of the same compound?
Answer: The TGI was 50.9 µM.

Question: What about the GI50 (HCC-2998 colon) of the same compound?
Answer: Its GI50 is 15.4 µM.

Question: What about the TGI (HCC-2998 colon) of the same compound?
Answer: The TGI was 30.3 µM.

Question: And the GI50 (HCT-116 colon)?
Answer: Its GI50 is 16.3 µM.

Question: What about the TGI (HCT-116 colon) of the same compound?
Answer: The TGI was 31.2 µM.

Question: What about the GI50 (HCT-15 colon) of the same compound?
Answer: Its GI50 is 18.6 µM.

Question: And the TGI (HCT-15 colon)?
Answer: The TGI was 38.9 µM.

Question: And the GI50 (HL-60(TB) leukemia)?
Answer: Its GI50 is 16.2 µM.

Question: What about the TGI (HL-60(TB) leukemia) of the same compound?
Answer: The TGI was 29.8 µM.

Question: What about the GI50 (HOP-62 NSCLC) of the same compound?
Answer: Its GI50 is 15.6 µM.

Question: What about the TGI (HOP-62 NSCLC) of the same compound?
Answer: Its TGI is 29.3 µM.

Question: What about the GI50 (HOP-92 NSCLC) of the same compound?
Answer: Its GI50 is 646 nM.

Question: And the TGI (HOP-92 NSCLC)?
Answer: The TGI was 18.6 µM.

Question: And the GI50 (HS 578T breast)?
Answer: Its GI50 is 12.6 µM.

Question: What about the TGI (HS 578T breast) of the same compound?
Answer: Its TGI is 25.7 µM.

Question: And the GI50 (HT29 colon)?
Answer: Its GI50 is 18.2 µM.

Question: And the TGI (HT29 colon)?
Answer: The TGI was 35.9 µM.

Question: What about the GI50 (K-562 leukemia) of the same compound?
Answer: Its GI50 is 152 nM.

Question: And the TGI (K-562 leukemia)?
Answer: Its TGI is 15 µM.

Question: And the GI50 (KM12 colon)?
Answer: The GI50 was 3.55 µM.

Question: What about the TGI (KM12 colon) of the same compound?
Answer: The TGI was 22 µM.

Question: What about the GI50 (LOX IMVI melanoma) of the same compound?
Answer: The GI50 was 18.7 µM.

Question: And the TGI (LOX IMVI melanoma)?
Answer: The TGI was 32.8 µM.

Question: And the GI50 (M14 melanoma)?
Answer: Its GI50 is 17.5 µM.

Question: What about the TGI (M14 melanoma) of the same compound?
Answer: The TGI was 32.3 µM.

Question: What about the GI50 (MALME-3M melanoma) of the same compound?
Answer: Its GI50 is 16.2 µM.

Question: What about the TGI (MALME-3M melanoma) of the same compound?
Answer: Its TGI is 34.3 µM.

Question: And the GI50 (MDA-MB-231 breast)?
Answer: The GI50 was 22.4 µM.

Question: What about the TGI (MDA-MB-231 breast) of the same compound?
Answer: The TGI was 55.3 µM.

Question: What about the GI50 (MDA-MB-468 breast) of the same compound?
Answer: Its GI50 is 8.68 µM.

Question: And the TGI (MDA-MB-468 breast)?
Answer: Its TGI is 24.8 µM.

Question: What about the GI50 (NCI-H226 lung) of the same compound?
Answer: Its GI50 is 13.4 µM.

Question: And the TGI (NCI-H226 lung)?
Answer: Its TGI is 31 µM.

Question: And the GI50 (NCI-H23 lung)?
Answer: The GI50 was 14.2 µM.

Question: What about the TGI (NCI-H23 lung) of the same compound?
Answer: The TGI was 38.6 µM.

Question: What about the GI50 (NCI-H322M lung) of the same compound?
Answer: Its GI50 is 13.5 µM.

Question: And the TGI (NCI-H322M lung)?
Answer: The TGI was 43.2 µM.

Question: What about the GI50 (NCI-H460 NSCLC) of the same compound?
Answer: Its GI50 is 16.4 µM.

Question: What about the TGI (NCI-H460 NSCLC) of the same compound?
Answer: Its TGI is 31 µM.

Question: What about the GI50 (OVCAR-4 ovarian) of the same compound?
Answer: Its GI50 is 15.6 µM.

Question: And the TGI (OVCAR-4 ovarian)?
Answer: The TGI was 43.8 µM.

Question: And the GI50 (OVCAR-5 ovarian)?
Answer: Its GI50 is 23.2 µM.

Question: What about the TGI (OVCAR-5 ovarian) of the same compound?
Answer: Its TGI is 75 µM.

Question: What about the GI50 (OVCAR-8 ovarian) of the same compound?
Answer: Its GI50 is 18.4 µM.

Question: What about the TGI (OVCAR-8 ovarian) of the same compound?
Answer: Its TGI is 46.1 µM.

Question: What about the GI50 (PC-3 prostate) of the same compound?
Answer: Its GI50 is 16.3 µM.

Question: And the TGI (PC-3 prostate)?
Answer: Its TGI is 31.5 µM.

Question: And the GI50 (RPMI-8226 leukemia)?
Answer: Its GI50 is 10.6 µM.

Question: And the TGI (RPMI-8226 leukemia)?
Answer: Its TGI is 22.5 µM.

Question: And the GI50 (RXF 393 renal)?
Answer: The GI50 was 13.8 µM.

Question: What about the TGI (RXF 393 renal) of the same compound?
Answer: Its TGI is 27.4 µM.

Question: And the GI50 (SF-268 CNS)?
Answer: Its GI50 is 17.2 µM.

Question: And the TGI (SF-268 CNS)?
Answer: The TGI was 34.8 µM.

Question: What about the GI50 (SK-MEL-2 melanoma) of the same compound?
Answer: The GI50 was 16.9 µM.

Question: And the TGI (SK-MEL-2 melanoma)?
Answer: Its TGI is 31.1 µM.

Question: What about the GI50 (SK-MEL-28 melanoma) of the same compound?
Answer: Its GI50 is 18.5 µM.

Question: And the TGI (SK-MEL-28 melanoma)?
Answer: The TGI was 34.9 µM.

Question: What about the GI50 (SK-MEL-5 melanoma) of the same compound?
Answer: The GI50 was 15 µM.

Question: What about the TGI (SK-MEL-5 melanoma) of the same compound?
Answer: The TGI was 28.4 µM.

Question: What about the GI50 (SK-OV-3 ovarian) of the same compound?
Answer: Its GI50 is 18.9 µM.

Question: And the TGI (SK-OV-3 ovarian)?
Answer: The TGI was 40.3 µM.

Question: And the GI50 (SN12C renal)?
Answer: Its GI50 is 10.1 µM.

Question: What about the TGI (SN12C renal) of the same compound?
Answer: The TGI was 25.3 µM.

Question: What about the GI50 (SNB-19 CNS) of the same compound?
Answer: Its GI50 is 19.3 µM.

Question: What about the TGI (SNB-19 CNS) of the same compound?
Answer: Its TGI is greater than 100 µM.

Question: And the GI50 (SNB-75 CNS)?
Answer: Its GI50 is 10.7 µM.

Question: And the TGI (SNB-75 CNS)?
Answer: The TGI was 23.5 µM.

Question: And the GI50 (SR leukemia)?
Answer: Its GI50 is 10.5 µM.

Question: And the TGI (SR leukemia)?
Answer: Its TGI is 22.4 µM.

Question: And the GI50 (SW-620 colon)?
Answer: The GI50 was 17.9 µM.

Question: And the TGI (SW-620 colon)?
Answer: The TGI was 40.2 µM.

Question: What about the GI50 (T-47D breast) of the same compound?
Answer: The GI50 was 12.4 µM.

Question: What about the TGI (T-47D breast) of the same compound?
Answer: Its TGI is 32.5 µM.

Question: And the GI50 (TK-10 renal)?
Answer: The GI50 was 14.9 µM.

Question: And the TGI (TK-10 renal)?
Answer: The TGI was 35.3 µM.

Question: What about the GI50 (U251 glioblastoma) of the same compound?
Answer: Its GI50 is 15.1 µM.

Question: And the TGI (U251 glioblastoma)?
Answer: The TGI was 29.7 µM.

Question: What about the GI50 (UACC-257 melanoma) of the same compound?
Answer: Its GI50 is 18.3 µM.

Question: And the TGI (UACC-257 melanoma)?
Answer: Its TGI is 33.3 µM.

Question: What about the GI50 (UACC-62 melanoma) of the same compound?
Answer: The GI50 was 15.6 µM.

Question: What about the TGI (UACC-62 melanoma) of the same compound?
Answer: The TGI was 29.1 µM.

Source: PubChem BioAssay (NCI)
